Assay results as given in ChEMBL document CHEMBL4311943, “3-[(1S,2S,3R)-2,3-Difluoro-1-hydroxy-7-methylsulfonylindan-4-yl]oxy-5-fluorobenzonitrile (PT2977), a Hypoxia-Inducible Factor 2α (HIF-2α) Inhibitor for the Treatment of Clear Cell Renal Cell Carcinoma” (J Med Chem, 2019).
The source made the active and inactive calls. No cut-off for these calls is given here.

Tests used:
[1] = biological target: Neuromedin-U receptor 1 (Homo sapiens) (UniProt Q9HB89); experiment: Activity at human NMU1 receptor at 10 uM
[2] = biological target: Neurotensin receptor type 1 (Homo sapiens) (UniProt P30989); experiment: Activity at human NTR1 receptor at 10 uM
Neurotensin receptor type 1 (Homo sapiens), sequence (P30989 whole entry): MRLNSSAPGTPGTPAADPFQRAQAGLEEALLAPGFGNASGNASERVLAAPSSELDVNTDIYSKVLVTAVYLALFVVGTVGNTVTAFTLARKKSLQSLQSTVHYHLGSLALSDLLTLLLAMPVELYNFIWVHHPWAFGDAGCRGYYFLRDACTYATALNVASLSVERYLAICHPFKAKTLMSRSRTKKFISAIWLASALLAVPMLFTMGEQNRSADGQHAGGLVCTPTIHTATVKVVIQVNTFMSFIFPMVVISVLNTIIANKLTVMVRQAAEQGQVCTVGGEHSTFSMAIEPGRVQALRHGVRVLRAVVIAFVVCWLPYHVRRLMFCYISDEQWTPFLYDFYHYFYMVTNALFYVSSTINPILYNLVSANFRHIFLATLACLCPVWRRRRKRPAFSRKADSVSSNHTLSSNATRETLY

[3] = biological target: T1, UDP-glucuronosyltransferase 2B17 (Homo sapiens, UniProt O75795); experiment: Substrate activity at recombinant human UGT2B17 expressed in baculovirus infected insect cell membranes assessed as enzyme-mediated glucuronidation by measuring Vmax per mg protein at 50 uM preincubated for 5 mins followed by UDPGA addition and measured after 60 mins by LC-MS/MS analysis; assay type: ADME; details: 1 h
T1 sequence (O75795 whole entry): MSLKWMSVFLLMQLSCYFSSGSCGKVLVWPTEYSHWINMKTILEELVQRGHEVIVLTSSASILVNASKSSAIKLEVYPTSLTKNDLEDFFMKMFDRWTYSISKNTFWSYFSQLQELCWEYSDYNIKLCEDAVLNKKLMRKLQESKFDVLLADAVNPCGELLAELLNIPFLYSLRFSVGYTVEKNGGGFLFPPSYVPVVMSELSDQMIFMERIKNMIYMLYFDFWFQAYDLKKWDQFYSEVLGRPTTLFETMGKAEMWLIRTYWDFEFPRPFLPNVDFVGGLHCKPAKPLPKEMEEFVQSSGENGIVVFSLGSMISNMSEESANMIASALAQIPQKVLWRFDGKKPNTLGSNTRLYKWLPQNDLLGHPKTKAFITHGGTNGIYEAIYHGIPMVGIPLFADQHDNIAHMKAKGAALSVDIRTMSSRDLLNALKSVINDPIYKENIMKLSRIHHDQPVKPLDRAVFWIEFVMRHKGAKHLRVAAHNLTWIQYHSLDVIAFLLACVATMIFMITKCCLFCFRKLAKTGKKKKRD

[4] = biological target: T1, UDP-glucuronosyltransferase 2B17; experiment: Substrate activity at UGT2B17 in human intestinal microsomes assessed as enzyme-mediated glucuronidation by measuring Vmax per mg protein at 2 to 1000 uM preincubated for 5 mins followed by UDPGA addition and measured after 60 mins by LC-MS/MS analysis; assay type: ADME, Intestine; details: 1 h
UGT2B17 = biological target: T2, UGT2B17 (Homo sapiens, UniProt O75795); experiment: Substrate activity at UGT2B17 in human intestinal microsomes assessed as enzyme-mediated glucuronidation by measuring Km at 2 to 1000 uM preincubated for 5 mins followed by UDPGA addition and measured after 60 mins by LC-MS/MS analysis; assay type: ADME, Intestine
T2 sequence (O75795 whole entry): T1 sequence (O75795 whole entry)

[5] = Protein binding in mouse plasma at 10 uM measured after 4 hrs by LC-MS/MS analysis; assay type: ADME, cell-free; details: read-out: PPB (converted)
Cytochrome P450 2C19 = Cytochrome P450 2C19 (Homo sapiens, UniProt P33261); experiment: Inhibition of CYP2C19 in human liver microsomes up to 50 uM using S-mephenytoin as substrate measured after 20 mins in presence of NADPH by LC-MS/MS analysis; assay type: ADME
Cytochrome P450 3A4 = Cytochrome P450 3A4 (Homo sapiens, UniProt P08684); experiment: Inhibition of CYP3A4 in human liver microsomes up to 50 uM using midazolam as substrate measured after 10 mins in presence of NADPH by LC-MS/MS analysis; assay type: ADME
[6] = Volume of distribution at steady state in Sprague-Dawley rat at 1 mg/kg, iv by UPLC-MS analysis; assay type: ADME, organism-based; details: in vivo, read-out: Vdss
[7] = Clearance in Sprague-Dawley rat at 1 mg/kg, iv by UPLC-MS analysis; assay type: ADME, organism-based; details: in vivo
[8] = Drug level in plasma of SCID Beige mouse xenografted with human 786-O cells at 0.3 mg/kg, po administered twice daily via gavage for 3 days measured 12 hrs post-last dose; assay type: ADME, organism-based
[9] = Drug level in plasma of SCID Beige mouse xenografted with human 786-O cells at 3 mg/kg, po administered twice daily via gavage for 3 days measured 12 hrs post-last dose; assay type: ADME, organism-based
[10] = Half life in patient with advanced solid tumor at 160 mg, po administered once daily measured on day 15; assay type: ADME, organism-based; details: human, in vivo
[11] = Cmax in patient with advanced solid tumor at 120 mg, po administered once daily measured on day 15; assay type: ADME, organism-based; set-up: dose 120 mg, route oral; details: human, in vivo
[12] = AUClast in patient with advanced solid tumor at 20 mg, po administered once daily measured on day 15; assay type: ADME, organism-based; set-up: dose 20 mg, route oral, time 0 - last; details: human, in vivo
[13] = AUClast in patient with advanced solid tumor at 80 mg, po administered once daily measured on day 15; assay type: ADME, organism-based; set-up: dose 80 mg, route oral, time 0 - last; details: human, in vivo
Homo sapiens [14] = experiment: In vivo inhibition of HIF-2alpha in po dosed patient with advanced solid tumor assessed as reduction in EPO expression administered once daily; assay type: organism-based
[15] = biological target: Adenosine receptor A3 (Homo sapiens) (UniProt P0DMS8); experiment: Activity at human adenosine A3 receptor at 10 uM
Adenosine receptor A3 (Homo sapiens), sequence (P0DMS8 whole entry): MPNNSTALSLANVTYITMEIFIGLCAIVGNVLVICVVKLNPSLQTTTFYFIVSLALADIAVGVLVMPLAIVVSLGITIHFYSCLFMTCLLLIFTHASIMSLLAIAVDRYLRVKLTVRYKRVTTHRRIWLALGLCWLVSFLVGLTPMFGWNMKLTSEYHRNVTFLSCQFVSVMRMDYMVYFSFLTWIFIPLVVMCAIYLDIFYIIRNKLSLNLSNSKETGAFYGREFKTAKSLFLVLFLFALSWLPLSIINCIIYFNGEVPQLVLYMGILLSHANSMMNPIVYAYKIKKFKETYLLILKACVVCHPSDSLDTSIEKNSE

[16] = biological target: Calcium/calmodulin-dependent protein kinase type II subunit beta (Homo sapiens) (UniProt Q13554); experiment: Activity at human CAMK2B at 10 uM
[17] = biological target: A-type voltage-gated potassium channel KCND3 (Homo sapiens, UniProt Q9UK17); experiment: Activity at human Kv4.3 at 10 uM
[18] = biological target: P2Y purinoceptor 1 (Homo sapiens) (UniProt P47900); experiment: Activity at human P2Y1 receptor at 10 uM
P2Y purinoceptor 1 (Homo sapiens), sequence (P47900 whole entry): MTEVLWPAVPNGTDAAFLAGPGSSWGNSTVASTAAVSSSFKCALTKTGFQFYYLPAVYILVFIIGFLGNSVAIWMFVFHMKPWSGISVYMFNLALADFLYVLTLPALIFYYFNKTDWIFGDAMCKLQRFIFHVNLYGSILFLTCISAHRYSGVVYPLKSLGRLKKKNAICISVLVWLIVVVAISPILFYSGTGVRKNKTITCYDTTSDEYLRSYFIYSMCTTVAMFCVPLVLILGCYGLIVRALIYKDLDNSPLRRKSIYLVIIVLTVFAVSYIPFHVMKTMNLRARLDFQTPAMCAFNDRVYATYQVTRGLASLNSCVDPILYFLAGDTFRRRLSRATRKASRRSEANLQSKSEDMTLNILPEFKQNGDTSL

[19] = biological target: 5-hydroxytryptamine receptor 2A (Homo sapiens) (UniProt P28223); experiment: Activity at human 5-HT2A receptor at 10 uM
5-hydroxytryptamine receptor 2A (Homo sapiens), sequence (P28223 whole entry): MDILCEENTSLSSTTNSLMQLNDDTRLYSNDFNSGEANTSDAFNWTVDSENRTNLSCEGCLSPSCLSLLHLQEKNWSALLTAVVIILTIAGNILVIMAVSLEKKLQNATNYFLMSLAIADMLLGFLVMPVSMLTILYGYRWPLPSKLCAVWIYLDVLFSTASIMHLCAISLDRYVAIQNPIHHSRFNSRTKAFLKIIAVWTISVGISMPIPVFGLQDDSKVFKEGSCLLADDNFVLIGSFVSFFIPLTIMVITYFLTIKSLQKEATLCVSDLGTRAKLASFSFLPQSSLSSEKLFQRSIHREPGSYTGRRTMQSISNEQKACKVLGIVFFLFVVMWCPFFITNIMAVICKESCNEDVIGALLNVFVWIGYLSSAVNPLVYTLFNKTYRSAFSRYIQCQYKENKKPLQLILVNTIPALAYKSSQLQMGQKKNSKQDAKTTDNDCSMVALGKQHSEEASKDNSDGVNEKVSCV

[20] = biological target: Prokineticin receptor 1 (Homo sapiens) (UniProt Q8TCW9); experiment: Activity at human PK1 receptor at 10 uM
Prokineticin receptor 1 (Homo sapiens), sequence (Q8TCW9 whole entry): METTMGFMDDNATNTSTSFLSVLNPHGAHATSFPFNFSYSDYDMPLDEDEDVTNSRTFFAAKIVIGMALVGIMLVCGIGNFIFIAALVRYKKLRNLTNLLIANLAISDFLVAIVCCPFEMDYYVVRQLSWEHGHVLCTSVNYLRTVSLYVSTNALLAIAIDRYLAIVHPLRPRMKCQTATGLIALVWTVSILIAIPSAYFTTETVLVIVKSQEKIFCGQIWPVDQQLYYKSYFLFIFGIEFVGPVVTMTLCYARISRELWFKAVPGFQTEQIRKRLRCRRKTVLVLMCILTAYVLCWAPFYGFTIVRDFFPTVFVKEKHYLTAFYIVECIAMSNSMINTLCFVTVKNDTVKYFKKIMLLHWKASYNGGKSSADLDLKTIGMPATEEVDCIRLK

[21] = biological target: Motilin receptor (Homo sapiens) (UniProt O43193); experiment: Activity at human MTLR receptor at 10 uM
Motilin receptor (Homo sapiens), sequence (O43193 whole entry): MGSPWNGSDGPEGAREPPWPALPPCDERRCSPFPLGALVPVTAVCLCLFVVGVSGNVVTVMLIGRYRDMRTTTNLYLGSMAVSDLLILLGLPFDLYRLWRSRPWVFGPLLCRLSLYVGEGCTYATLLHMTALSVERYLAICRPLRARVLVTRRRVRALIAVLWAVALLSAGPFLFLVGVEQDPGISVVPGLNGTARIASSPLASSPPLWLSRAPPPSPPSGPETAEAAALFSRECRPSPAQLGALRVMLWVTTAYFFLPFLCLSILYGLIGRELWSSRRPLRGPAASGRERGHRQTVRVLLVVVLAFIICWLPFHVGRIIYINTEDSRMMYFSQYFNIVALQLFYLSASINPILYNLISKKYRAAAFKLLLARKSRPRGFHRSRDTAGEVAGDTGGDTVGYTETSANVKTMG

[22] = biological target: Sphingosine 1-phosphate receptor 3 (Homo sapiens) (UniProt Q99500); experiment: Activity at human S1P3 receptor at 10 uM
[23] = biological target: Gonadotropin-releasing hormone receptor (Homo sapiens) (UniProt P30968); experiment: Activity at human GNRH at 10 uM
Gonadotropin-releasing hormone receptor (Homo sapiens), sequence (P30968 whole entry): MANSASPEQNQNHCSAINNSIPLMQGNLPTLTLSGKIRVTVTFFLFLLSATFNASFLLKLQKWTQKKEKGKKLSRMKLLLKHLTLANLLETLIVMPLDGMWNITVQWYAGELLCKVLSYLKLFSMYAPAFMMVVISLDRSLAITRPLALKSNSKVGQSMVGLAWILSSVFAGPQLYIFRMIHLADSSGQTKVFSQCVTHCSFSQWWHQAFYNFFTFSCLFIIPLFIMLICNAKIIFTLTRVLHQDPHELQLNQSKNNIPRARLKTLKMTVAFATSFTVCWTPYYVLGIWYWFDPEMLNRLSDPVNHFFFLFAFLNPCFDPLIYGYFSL

[24] = biological target: C-X-C chemokine receptor type 1 (Homo sapiens) (UniProt P25024); experiment: Activity at human CXCR1 receptor at 10 uM
C-X-C chemokine receptor type 1 (Homo sapiens), sequence (P25024 whole entry): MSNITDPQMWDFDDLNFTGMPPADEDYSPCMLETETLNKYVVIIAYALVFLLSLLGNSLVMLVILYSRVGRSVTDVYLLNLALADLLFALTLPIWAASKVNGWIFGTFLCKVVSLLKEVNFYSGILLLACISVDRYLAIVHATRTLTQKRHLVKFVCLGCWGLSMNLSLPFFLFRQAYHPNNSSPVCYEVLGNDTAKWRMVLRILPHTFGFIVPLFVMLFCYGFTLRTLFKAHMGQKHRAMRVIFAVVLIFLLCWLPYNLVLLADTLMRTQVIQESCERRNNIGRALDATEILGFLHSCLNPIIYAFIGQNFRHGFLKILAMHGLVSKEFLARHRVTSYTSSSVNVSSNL

[25] = biological target: Cannabinoid receptor 2 (Homo sapiens) (UniProt P34972); experiment: Activity at human CB2 receptor at 10 uM
Cannabinoid receptor 2 (Homo sapiens), sequence (P34972 whole entry): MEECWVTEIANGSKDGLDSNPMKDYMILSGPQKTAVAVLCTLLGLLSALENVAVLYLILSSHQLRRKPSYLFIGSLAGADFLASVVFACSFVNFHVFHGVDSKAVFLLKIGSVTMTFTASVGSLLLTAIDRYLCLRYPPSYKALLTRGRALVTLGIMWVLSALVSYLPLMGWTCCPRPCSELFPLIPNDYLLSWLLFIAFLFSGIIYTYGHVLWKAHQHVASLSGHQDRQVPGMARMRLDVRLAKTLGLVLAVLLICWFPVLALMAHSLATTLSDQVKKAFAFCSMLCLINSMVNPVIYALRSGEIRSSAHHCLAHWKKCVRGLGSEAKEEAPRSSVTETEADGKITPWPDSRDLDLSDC

[26] = biological target: CDK7/Cyclin H/MNAT1 (Homo sapiens) (UniProt P51946+P50613+P51948); experiment: Activity at human CDK7/cyclinH/MAT1 at 10 uM; assay type: protein-complex assay
[27] = biological target: Phosphorylase b kinase gamma catalytic chain, liver/testis isoform (Homo sapiens) (UniProt P15735); experiment: Activity at human PhKgamma2 at 10 uM
Phosphorylase b kinase gamma catalytic chain, liver/testis isoform (Homo sapiens), sequence (P15735 whole entry, canonical isoform): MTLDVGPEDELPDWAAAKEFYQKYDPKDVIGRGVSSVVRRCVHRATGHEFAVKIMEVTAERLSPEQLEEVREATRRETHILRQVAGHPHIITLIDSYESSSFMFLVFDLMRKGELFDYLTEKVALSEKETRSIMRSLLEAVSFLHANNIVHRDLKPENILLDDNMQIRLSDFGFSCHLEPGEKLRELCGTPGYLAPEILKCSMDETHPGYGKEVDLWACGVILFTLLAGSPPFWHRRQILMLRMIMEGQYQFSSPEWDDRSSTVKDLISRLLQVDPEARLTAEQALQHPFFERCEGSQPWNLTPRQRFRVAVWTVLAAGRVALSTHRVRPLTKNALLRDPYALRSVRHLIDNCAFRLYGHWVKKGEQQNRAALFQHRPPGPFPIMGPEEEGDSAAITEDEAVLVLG

Homo sapiens [28] = organism: Homo sapiens; experiment: Activity at human PKA at 10 uM
[29] = biological target: RAC-beta serine/threonine-protein kinase (Homo sapiens) (UniProt P31751); experiment: Activity at human PKBbeta at 10 uM
[30] = biological target: Protein kinase C iota type (Homo sapiens) (UniProt P41743); experiment: Activity at human PKCiota at 10 uM
[31] = biological target: cGMP-dependent protein kinase 1 (Homo sapiens) (UniProt Q13976); experiment: Activity at human PKG1beta at 10 uM
cGMP-dependent protein kinase 1 (Homo sapiens), sequence (Q13976 whole entry): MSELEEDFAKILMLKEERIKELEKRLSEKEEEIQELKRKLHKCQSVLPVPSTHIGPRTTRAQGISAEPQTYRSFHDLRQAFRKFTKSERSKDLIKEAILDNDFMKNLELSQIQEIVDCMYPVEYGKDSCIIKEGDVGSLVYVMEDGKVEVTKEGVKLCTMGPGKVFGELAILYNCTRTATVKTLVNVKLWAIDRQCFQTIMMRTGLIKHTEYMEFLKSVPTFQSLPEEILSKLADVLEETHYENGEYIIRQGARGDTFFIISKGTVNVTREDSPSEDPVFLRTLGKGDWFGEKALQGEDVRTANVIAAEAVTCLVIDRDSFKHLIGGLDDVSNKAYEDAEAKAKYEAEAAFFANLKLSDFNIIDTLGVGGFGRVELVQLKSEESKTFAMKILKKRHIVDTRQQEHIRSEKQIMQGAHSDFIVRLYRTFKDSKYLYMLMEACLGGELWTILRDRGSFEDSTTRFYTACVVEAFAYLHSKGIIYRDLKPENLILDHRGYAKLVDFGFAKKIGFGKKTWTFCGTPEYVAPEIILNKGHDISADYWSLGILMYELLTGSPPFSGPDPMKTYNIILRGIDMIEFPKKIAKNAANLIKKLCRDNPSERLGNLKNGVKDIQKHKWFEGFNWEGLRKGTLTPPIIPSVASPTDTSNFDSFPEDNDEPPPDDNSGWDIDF

[32] = biological target: Tyrosine-protein phosphatase non-receptor type 2 (Homo sapiens) (UniProt P17706); experiment: Activity at human TCPTP at 10 uM
Tyrosine-protein phosphatase non-receptor type 2 (Homo sapiens), sequence (P17706 whole entry): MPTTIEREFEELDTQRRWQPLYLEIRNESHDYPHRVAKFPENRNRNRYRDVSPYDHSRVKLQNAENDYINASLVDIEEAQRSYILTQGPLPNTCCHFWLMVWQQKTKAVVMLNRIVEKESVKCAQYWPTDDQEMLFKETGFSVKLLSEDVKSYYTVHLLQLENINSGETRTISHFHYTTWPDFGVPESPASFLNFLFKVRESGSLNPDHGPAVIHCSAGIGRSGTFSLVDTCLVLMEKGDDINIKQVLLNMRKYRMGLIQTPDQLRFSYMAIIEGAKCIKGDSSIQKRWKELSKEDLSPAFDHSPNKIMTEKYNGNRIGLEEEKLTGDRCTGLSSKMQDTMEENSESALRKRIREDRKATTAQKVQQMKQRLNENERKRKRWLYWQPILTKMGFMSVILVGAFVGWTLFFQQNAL

CS(=O)(=O)c1ccc(Oc2cc(F)cc(C#N)c2)c2c1[C@H](O)[C@H](F)[C@@H]2F [BELZUTIFAN]
Activity [1]: inactive | Activity [2]: inactive | Vmax [3]: 4.7 pmol/min | Vmax [4]: 0.5 pmol/min | Km at 1 h, up to 1000 µM (UGT2B17): 15 µM | fraction unbound at 4 h, 10 µM [5]: 0.44 | inhibition (INH) (Cytochrome P450 2C19): Not Active | inhibition (INH) (Cytochrome P450 3A4): Not Active | Vd [6]: 1.6 L/kg | clearance [7]: 19 mL/min/kg | concentration at 12 h [8]: < 19 ng/mL | concentration at 12 h [9]: 59 ng/mL | half-life [10]: 12.2 h | Cmax [11]: 1800 ng/mL | AUC(0-t) [12]: 2100 ng·h/mL | AUC(0-t) [13]: 17500 ng·h/mL | inhibition (INH) (Homo sapiens [14]): Dose-dependent effect | Activity [15]: inactive | Activity [16]: inactive | Activity [17]: Not Active | Activity [18]: inactive | Activity [19]: inactive | Activity [20]: inactive | Activity [21]: inactive | Activity [22]: inactive | Activity [23]: inactive | Activity [24]: inactive | Activity [25]: inactive | Activity [26]: inactive | Activity [27]: inactive | Activity (Homo sapiens [28]): inactive | Activity [29]: inactive | Activity [30]: inactive | Activity [31]: inactive | Activity [32]: inactive
